Consider two compounds from patent publication US10894777B2, “TG2 inhibitor piperazine compounds and uses thereof” (UNIVERSITY OF OTTAWA, priority 2016, dated 2021).

The test system of one experiment is 1321N cells. The experiment is described as follows: Agarose colony formation assay, TG2-null 1321N cells. The experiment is classed as cell-based, human. Particulars: 10 μM, 2 weeks. The procedure:
Agarose colony formation assay. Agarose colony formation assay was conducted as described (Horman, S. R. et al., J. Biomol. Screen 18(10):1298-308, 2013; Zhang, K. et al., Tumour Biol. 35(3):2537-48, 2014) using 6-well plates and 5,000 cells in each well. 10 μM NC9 or DMSO was added to every layer at the start of the experiments. 2 mL liquid MEM containing 10 μM NC9 or DMSO was used to cover the agarose and it was changed 3 times a week. Colony growth was monitored every day and at the end of 10-15 days, the colonies were fixed with 4% paraformaldehyde, stained with 0.005% crystal violet, washed with PBS twice and 40 random pictures were taken from each treatment group. A person blinded for the treatments measured the area of the colonies using ImageJ program and the volumes were calculated from the area data under the assumption that the colonies are perfect spheres. The volumes were used to compare the effect of NC9 on colony growth.

Another experiment concerns procaspase 3. The experiment is described as follows: Immunoblot of procaspase 3 cleavage, SCC-13 spheroids. It is filed as cell-based, human. Conditions: 8 day spheroids, 20 μM. On the procedure:
In (A), SCC-13 cells (40,000) were plated in non-adherent six well dishes, grown for 8 days in spheroid medium, and then NC9 was added and spheroid number was monitored at 0-48 hours. In (B), spheroids were grown for 10 days, treated for 48 hours with indicated level of NC9 and photographed. In (C), SCC-13 cells were plated at 40,000 cells per well in non-adherent six well dishes and after 10 days the spheroids were treated with 0-20 μM NC9 for 0-72 hours before trypan blue exclusion viability assay. In (D), SCC-13 spheroids were grown for 10 days, treated with 0 or 20 μM NC9 for 48 hours, and TG2 level was assayed by immunoblot. In (E), SCC-13 cells were grown as monolayers in spheroid medium and TG2 activity was monitored by FC incorporation assay as outlined in the Materials and Methods for Example 7. In (F), SCC-13 cell 8 day spheroids were treated with […] NC9 and cells were harvested at the indicated times for immunoblot detection of procaspase 3 and cleaved caspase 3. In all panels, the values are mean±SEM, n=3, p<0.05.
For orientation: A western blot detects proteins with antibodies after separation by electrophoresis.

A further experiment concerns the target hTG1 (Homo sapiens, UniProt P22735). The experiment is described as follows: Colorimetric transamidase activity assay (AL5 substrate), hTG1. It is filed as biochemical. Conditions: Table 9; Kitz and Wilson conditions. On the procedure: Selectivity of certain irreversible inhibitors over other members of the transglutaminase family was assessed. […] Inhibitors were tested using a continuous colorimetric assay (Leblanc, A. et al., Biochemistry (2001), 40 (28): 8335-8342) for hTG1 and hTG6 and a commercially available continuous fluorescent assay that utilizes a peptidic FRET quenched substrate (Oertel, K. et al., Anal. Biochem. (2007), 367 (2): 152-158; Király, R. et al., Amino Acids (2016), 48 (1): 31-40) for the other transglutaminases, FXIIIa and hTG3. The rate constant of enzyme inactivation (kobs) for a specific concentration of inhibitor was obtained using Kitz and Wilson conditions (Kitz, R. et al., J. Biol. Chem. (1962), 237: 3245-49). Inhibitor concentrations were adjusted to account for competition with substrates in each enzymatic reaction.
In Vitro Assays. Colorimetric transamidase activity assay.

The subject of a further experiment is TG2 mRNA. Kind of experiment: TG2 mRNA expression by qRT-PCR in GBM cell lines. It is filed as cell-based, human. Particulars: 10 μM, 24 or 48 h. The procedure:
Q-RTPCR. After RNA isolation, cDNA was synthesized using the verso cDNA kit (ThermoFisher) with oligo-dT primers following the manufacturer's instructions. Quantitative real time PCR was carried out using SYBR green mix (Agilent Technologies) along with primers against total human TG2 or GAPDH (for normalization) as previously described (Cao, L. et al., Oncogene 31(20):2521-34, 2012).
For orientation: In qPCR the cycle at which signal appears reflects the starting amount.

The next experiment concerns the target T1, TG2 (Homo sapiens, UniProt P21980).
T1 sequence (P21980 1-687): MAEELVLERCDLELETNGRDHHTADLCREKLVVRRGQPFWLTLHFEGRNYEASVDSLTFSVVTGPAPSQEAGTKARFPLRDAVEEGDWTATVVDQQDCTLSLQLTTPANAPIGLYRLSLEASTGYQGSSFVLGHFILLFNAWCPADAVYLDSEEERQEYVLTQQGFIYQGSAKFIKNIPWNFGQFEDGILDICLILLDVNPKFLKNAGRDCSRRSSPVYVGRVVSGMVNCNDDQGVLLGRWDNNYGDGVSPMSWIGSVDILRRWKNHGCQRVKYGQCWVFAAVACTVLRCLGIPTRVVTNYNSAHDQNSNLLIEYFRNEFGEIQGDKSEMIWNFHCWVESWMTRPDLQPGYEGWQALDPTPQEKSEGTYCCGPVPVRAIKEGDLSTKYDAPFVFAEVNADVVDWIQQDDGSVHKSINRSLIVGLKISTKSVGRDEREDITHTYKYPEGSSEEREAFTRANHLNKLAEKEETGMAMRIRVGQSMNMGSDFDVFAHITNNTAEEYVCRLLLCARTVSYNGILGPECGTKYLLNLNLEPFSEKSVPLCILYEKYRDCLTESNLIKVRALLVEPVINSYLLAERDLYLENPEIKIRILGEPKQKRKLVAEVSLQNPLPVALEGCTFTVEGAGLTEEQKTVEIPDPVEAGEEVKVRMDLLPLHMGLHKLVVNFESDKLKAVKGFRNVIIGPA
Kind of experiment: In vitro GTP binding assay after inhibition of hTG2 (BODIPY GTP-γ-S). Conditions: inhibitor 2×KI, 30 min; 3 μM GTP-γ-S FL BODIPY. The procedure: In vitro GTP binding assay. GTP binding was measured using a method similar to that reported previously (McEwen, D. P. et al., Anal. Biochem. (2001), 291 (1): 109-117). […] The buffer was then exchanged to 100 mM MOPS (pH=7.0), 1 mM EGTA and 5 mM MgCl2 to remove calcium using a 10-kDa molecular weight cut off membrane. The fluorescent GTP analog was then added to give a final concentration of 3.0 μM and fluorescence was then measured on a microplate reader after 10 minutes of incubation (Ex/Em: 490/520 nm).

Chain of hTG1 (P22735 whole entry): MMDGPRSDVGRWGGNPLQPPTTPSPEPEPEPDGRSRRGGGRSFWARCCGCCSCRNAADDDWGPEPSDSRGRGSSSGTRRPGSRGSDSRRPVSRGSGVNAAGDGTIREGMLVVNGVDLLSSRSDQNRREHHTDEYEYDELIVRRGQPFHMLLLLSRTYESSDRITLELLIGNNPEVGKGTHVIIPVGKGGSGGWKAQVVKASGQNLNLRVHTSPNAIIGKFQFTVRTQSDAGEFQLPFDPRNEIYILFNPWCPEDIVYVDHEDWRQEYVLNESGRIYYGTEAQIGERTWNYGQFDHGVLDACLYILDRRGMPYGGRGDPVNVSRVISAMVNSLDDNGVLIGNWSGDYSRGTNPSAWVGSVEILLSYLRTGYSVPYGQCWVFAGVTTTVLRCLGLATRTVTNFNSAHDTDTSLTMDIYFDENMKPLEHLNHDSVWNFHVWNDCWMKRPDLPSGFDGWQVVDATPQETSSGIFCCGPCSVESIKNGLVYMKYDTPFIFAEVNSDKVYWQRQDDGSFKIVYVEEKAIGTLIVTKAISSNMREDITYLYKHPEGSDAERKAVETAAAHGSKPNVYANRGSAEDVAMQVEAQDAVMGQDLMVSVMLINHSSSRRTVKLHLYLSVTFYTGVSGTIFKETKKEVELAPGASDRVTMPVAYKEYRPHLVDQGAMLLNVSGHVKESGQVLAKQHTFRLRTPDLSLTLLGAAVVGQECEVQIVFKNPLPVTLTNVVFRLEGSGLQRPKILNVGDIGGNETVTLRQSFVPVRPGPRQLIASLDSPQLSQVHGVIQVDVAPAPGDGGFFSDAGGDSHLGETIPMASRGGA

On to `C=CC(=O)NCCCC[C@H](NC(=O)OCc1ccccc1)C(=O)NCCOCCOCCNS(=O)(=O)c1cccc2c(N(C)C)cccc12` [NC9], for which the “colony growth, 1321N” value in the experiment with 1321N cells was “no effect”. Further, in the experiment with procaspase 3, the “time to initiation of procaspase 3 cleavage after addition” value is reported as not above 1 h. Further, at hTG1, the “kobs (10^−3 min^−1), TG1” value was 78.9 ± 5.9 10^−3 min^−1. In addition, the “TG2 mRNA levels” value in the experiment with TG2 mRNA was “no significant effects”.
Consider `C=CC(=O)NCCCC[C@H](NC(=O)OCc1ccccc1)C(=O)N1CCN(S(=O)(=O)c2cccc3c(N(C)C)cccc23)CC1` [VA4, (S)-benzyl(6-acrylamido-1-(4-((5-(dimethylamino)naphthalen-1-yl)sulfonyl)piperazin-1-yl)-1-oxohexan-2-yl)carbamate], for which the “GTP binding of hTG2 after incubation with inhibitor” value on TG2 is “abolish GTP binding nearly completely”.
